Columns and labels:
JAK2 = target: T1, JAK2 (Homo sapiens, UniProt O60674); experiment: Competition binding assay to determine Kd against JAK kinases: JAK2
T1 construct: made in house; host or cells: T7 phage display, or HEK-293 cells (alternative)
Description: (§1) Competition Binding Assay to Determine Binding Constants (Kd) of the Compounds Against JAK Kinases
(§2) Competition binding assays used herein were developed, validated and performed as described in Fabian et al., Nature Biotechnology 2005, 23, 329-336. Kinases were produced as fusions to T7 phage (See, Fabian et al. or WO04/015142) or alternatively, the kinases were expressed in HEK-293 cells and subsequently tagged with DNA for PCR detection (See, WO08/005,310). For the binding assays, streptavidin-coated magnetic beads were treated with biotinylated affinity ligands for 30 min at rt to generate affinity resins. The liganded beads were blocked with excess biotin and washed with blocking buffer (SeaBlock (Pierce), 1% BSA, 0.05% Tween 20, 1 mM DTT) to remove unbound ligand and to reduce non-specific binding. Binding reactions were assembled by combining kinase, liganded affinity beads, and test compounds in 1× binding buffer (20% SeaBlock, 0.17×PBS, 0.05% Tween 20, 6 mM DTT). Test compounds were prepared as 100× stocks in DMSO and rapidly diluted into the aqueous environment. DMSO was added to control assays lacking a test compound. Primary screen interactions were performed in polypropylene 384-well plates in a final volume of 34 μL, while Kd determinations were performed in polystyrene 96-well plates in a final volume of 135 μL. The assay plates were incubated at room temperature with shaking for 1 hour, long enough for binding reactions to reach equilibrium, and the affinity beads were washed extensively with wash buffer (1×PBS, 0.05% Tween 20) to remove unbound protein. The beads were then resuspended in elution buffer (1×PBS, 0.05% Tween 20, 2 μM non-biotinylated affinity ligand) and incubated at room temperature with shaking for 30 min. The kinase concentration in the eluates was measured by quantitative PCR. Each kinase was tested individually against each compound. Kds were determined using eleven serial threefold dilutions. A selectivity score, which is a quantitative measure of selectivity of a compound against a panel of enzymes, may be calculated for a compound by dividing the number of enzymes for which a compound meets a set criteria, (for example, a binding constant of 100 nM or less), by the total number of enzymes tested.

[1] = system: GM-CSFR/JAK2/STAT5 pathway; experiment: csTF-1 cell-based reporter assay; details: Homo sapiens; csTF-1 cells, GM-CSF at 2 ng/mL, 4 hours; read-out: Cell Assay: CS TF-1 reporter assay IC50
Protocol: csTF-1 Cell-Based Reporter Assay
csTF-1 cells are derived from the human erythroleukemia cell line that is growth dependent on GM-CSF and has an intact GM-CSFR/JAK2/STAT5 pathway. The cell line contains stably integrated beta-lactamase reporter gene under the control of the […] (irf 1) response element recognized by the activated transcription factor STATS. csTF-1 cells (Invitrogen K1219) were washed with assay media (97% OPTIMEM/0.5% dialyzed FBS/0.1 mM NEAA/1 mM Na pyr/P/S) and seeded in the same media at 5×10^5 cell/mL in T150 flask. After 16 hour incubation, cells were seeded at 2×10^5 cell/well in 50 μl volume, into Costar, clear bottom, 96-well assay plates. Serial dilutions of compounds were added to the plates with final DMSO concentration at 0.5% and GM-CSF at 2 ng/mL and the plates were then incubated at […] and 5% CO2 for 4 hours. The plates were brought to room temperature before adding Substrate Mixture according to manufacturer's protocol (Invitrogen, Catalog #K1085). The assay plates containing the substrate mixture were incubated in the dark at room temperature for 2 hours. Blue and green fluorescence was measured with excitation at 409 nm and emission at 460 nm (for blue) and excitation at 409 nm and emission at 530 nm (for green) using Spectra Max Gemini EM.

JAK3 = target: T2, JAK3 (Homo sapiens, UniProt P52333); experiment: Competition binding assay to determine Kd against JAK kinases: JAK3
T2 construct: made in house; host or cells: T7 phage display, or HEK-293 cells (alternative)
T2 sequence (P52333 1-1124): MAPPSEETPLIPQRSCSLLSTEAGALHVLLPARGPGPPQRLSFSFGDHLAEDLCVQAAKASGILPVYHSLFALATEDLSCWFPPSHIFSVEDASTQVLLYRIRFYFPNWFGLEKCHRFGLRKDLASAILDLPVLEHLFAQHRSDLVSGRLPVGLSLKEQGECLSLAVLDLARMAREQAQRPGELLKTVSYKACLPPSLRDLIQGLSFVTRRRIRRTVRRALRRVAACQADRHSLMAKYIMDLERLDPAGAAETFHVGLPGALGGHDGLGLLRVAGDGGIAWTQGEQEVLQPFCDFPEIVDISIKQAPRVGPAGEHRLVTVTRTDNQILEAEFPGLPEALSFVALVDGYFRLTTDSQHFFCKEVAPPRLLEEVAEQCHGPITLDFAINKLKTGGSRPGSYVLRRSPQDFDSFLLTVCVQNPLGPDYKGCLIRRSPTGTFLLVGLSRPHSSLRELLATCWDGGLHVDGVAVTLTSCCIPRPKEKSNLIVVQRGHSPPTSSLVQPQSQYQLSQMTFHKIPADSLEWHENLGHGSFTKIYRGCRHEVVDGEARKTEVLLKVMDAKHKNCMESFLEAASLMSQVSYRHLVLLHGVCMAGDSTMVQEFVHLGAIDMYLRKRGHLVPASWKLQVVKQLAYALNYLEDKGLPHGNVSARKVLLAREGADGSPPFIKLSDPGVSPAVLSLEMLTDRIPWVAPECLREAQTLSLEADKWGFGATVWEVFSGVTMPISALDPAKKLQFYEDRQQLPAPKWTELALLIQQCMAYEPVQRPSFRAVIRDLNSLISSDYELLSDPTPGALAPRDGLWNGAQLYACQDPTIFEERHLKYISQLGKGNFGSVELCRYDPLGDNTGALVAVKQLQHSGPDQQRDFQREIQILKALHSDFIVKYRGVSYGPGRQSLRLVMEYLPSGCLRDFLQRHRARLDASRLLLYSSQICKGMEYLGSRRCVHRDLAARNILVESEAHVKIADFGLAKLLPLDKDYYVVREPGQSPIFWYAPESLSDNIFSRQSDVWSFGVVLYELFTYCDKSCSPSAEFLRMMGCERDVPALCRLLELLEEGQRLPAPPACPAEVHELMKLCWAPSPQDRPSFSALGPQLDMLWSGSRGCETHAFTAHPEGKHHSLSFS
Description: as §1, §2

Tyk2 = target: T3, Tyk2 (Homo sapiens, UniProt P29597); experiment: Competition binding assay to determine Kd against JAK kinases: Tyk2
T3 construct: made in house; host or cells: T7 phage display, or HEK-293 cells (alternative)
Description: as §1, §2

T1 sequence (O60674 whole entry): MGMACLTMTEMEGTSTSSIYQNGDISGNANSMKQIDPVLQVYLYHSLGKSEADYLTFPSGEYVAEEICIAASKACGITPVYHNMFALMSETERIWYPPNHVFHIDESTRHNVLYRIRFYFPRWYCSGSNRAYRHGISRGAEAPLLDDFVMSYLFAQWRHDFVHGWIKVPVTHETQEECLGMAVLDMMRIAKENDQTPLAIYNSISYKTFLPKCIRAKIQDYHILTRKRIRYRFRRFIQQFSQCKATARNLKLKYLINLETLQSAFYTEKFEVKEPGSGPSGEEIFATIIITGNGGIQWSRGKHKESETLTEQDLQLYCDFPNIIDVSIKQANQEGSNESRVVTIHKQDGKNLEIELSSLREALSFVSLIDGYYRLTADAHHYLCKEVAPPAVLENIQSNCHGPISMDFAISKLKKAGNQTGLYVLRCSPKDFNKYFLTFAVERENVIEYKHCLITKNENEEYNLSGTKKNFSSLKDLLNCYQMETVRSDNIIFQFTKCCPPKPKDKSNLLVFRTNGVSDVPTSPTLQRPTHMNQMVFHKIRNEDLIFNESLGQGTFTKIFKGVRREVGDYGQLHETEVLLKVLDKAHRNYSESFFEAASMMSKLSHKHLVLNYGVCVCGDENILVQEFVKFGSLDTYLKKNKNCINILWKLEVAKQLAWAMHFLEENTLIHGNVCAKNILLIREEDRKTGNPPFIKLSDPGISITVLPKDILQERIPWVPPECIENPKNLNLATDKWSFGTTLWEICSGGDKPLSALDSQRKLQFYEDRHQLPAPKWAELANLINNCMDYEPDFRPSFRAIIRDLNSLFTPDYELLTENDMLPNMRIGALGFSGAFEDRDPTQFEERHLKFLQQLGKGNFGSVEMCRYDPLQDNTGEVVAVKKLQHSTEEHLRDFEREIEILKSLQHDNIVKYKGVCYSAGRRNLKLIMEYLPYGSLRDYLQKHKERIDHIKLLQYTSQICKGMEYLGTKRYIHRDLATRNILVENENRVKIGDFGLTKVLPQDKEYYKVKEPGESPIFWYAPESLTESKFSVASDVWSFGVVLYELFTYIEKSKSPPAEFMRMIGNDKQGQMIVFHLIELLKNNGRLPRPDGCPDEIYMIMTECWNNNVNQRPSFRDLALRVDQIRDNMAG
T3 sequence (P29597 whole entry): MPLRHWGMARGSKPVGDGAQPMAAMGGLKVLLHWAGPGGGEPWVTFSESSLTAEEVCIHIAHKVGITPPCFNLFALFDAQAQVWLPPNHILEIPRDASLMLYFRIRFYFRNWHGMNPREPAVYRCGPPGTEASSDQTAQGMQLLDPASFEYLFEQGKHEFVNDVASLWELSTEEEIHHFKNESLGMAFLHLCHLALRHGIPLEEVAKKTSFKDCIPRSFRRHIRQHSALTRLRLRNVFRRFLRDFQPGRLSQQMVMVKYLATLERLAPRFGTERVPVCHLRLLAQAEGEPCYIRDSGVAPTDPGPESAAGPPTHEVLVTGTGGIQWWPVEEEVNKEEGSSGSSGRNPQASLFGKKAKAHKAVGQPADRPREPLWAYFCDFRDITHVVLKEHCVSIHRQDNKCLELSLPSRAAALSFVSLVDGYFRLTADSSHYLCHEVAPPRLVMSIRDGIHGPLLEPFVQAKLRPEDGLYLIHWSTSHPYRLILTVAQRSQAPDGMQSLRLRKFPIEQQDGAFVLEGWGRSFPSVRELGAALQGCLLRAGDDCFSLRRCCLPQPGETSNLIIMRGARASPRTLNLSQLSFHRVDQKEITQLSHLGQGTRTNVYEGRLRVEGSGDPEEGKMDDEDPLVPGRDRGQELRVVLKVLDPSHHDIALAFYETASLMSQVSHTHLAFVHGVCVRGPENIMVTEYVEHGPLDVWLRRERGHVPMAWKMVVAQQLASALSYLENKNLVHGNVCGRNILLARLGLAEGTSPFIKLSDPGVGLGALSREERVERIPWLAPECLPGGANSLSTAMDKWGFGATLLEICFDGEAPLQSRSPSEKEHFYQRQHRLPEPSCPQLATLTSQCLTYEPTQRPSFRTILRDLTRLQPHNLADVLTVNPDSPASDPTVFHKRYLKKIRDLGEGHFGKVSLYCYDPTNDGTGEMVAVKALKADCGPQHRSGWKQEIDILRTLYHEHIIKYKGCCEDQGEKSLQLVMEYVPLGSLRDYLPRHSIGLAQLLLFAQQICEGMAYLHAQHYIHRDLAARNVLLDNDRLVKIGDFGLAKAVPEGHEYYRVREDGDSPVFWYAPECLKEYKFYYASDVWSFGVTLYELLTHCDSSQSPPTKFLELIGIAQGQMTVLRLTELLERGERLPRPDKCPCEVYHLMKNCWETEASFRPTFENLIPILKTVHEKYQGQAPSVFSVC

## CC(=O)Nc1cccc2c(Nc3cc(C)[nH]n3)nc(C(F)(F)c3ccc(F)cn3)nc12 [Example 48, N-(2-(difluoro(5-fluoropyridin-2-yl)methyl)-4-((5-methyl-1H-pyrazol-3-yl)amino)quinazolin-8-yl)acetamide]
JAK2
  Kd: ≤ 1 nM
[1]
  IC50: ≤ 100 nM
JAK3
  Kd: ≤ 10 nM
Tyk2
  Kd: ≤ 10 nM

## Cc1cc(Nc2nc(C(F)(F)c3ccc(F)cn3)nc3c([N+](=O)[O-])cccc23)n[nH]1 [Example 49, 2-(difluoro(5-fluoropyridin-2-yl)methyl)-N-(5-methyl-1H-pyrazol-3-yl)-8-nitroquinazolin-4-amine]
JAK2
  Kd: 1 to 10 nM
[1]
  IC50: 100 to 500 nM
JAK3
  Kd: 10 to 100 nM
Tyk2
  Kd: 10 to 100 nM

## Cc1cc(Nc2nc(C(F)(F)c3ccc(F)cn3)nc3c(N)cccc23)n[nH]1 [Example 50, 2-(difluoro(5-fluoropyridin-2-yl)methyl)-N4-(5-methyl-1H-pyrazol-3-yl)quinazoline-4,8-diamine]
JAK2
  Kd: ≤ 1 nM
[1]
  IC50: ≤ 100 nM
JAK3
  Kd: ≤ 10 nM
Tyk2
  Kd: ≤ 10 nM

## Cc1cc(Nc2nc(C(F)(F)c3ccc(F)cn3)nc3c(C4CC4)cccc23)n[nH]1 [Example 51, 8-cyclopropyl-2-(difluoro(5-fluoropyridin-2-yl)methyl)-N-(5-methyl-1H-pyrazol-3-yl)quinazolin-4-amine]
JAK2
  Kd: ≤ 1 nM
[1]
  IC50: 100 to 500 nM
JAK3
  Kd: 10 to 100 nM
Tyk2
  Kd: ≤ 10 nM

## Cc1cc(Nc2nc(C(F)(F)c3ccc(F)cn3)nc3c(NS(C)(=O)=O)cccc23)n[nH]1 [Example 52, N-(2-(difluoro(5-fluoropyridin-2-yl)methyl)-4-((5-methyl-1H-pyrazol-3-yl)amino)quinazolin-8-yl)methanesulfonamide]
JAK2
  Kd: ≤ 1 nM
[1]
  IC50: ≤ 100 nM
JAK3
  Kd: ≤ 10 nM
Tyk2
  Kd: ≤ 10 nM

## Cc1cc(Nc2nc(C(F)(F)c3ccc(F)cn3)nc3c(C(=O)O)cccc23)n[nH]1 [Example 53, 2-(difluoro(5-fluoropyridin-2-yl)methyl)-4-((5-methyl-1H-pyrazol-3-yl)amino)quinazoline-8-carboxylic acid]
JAK2
  Kd: ≤ 1 nM
[1]
  IC50: 100 to 500 nM
JAK3
  Kd: ≤ 10 nM
Tyk2
  Kd: ≤ 10 nM
